In patent publication US11040981B2, “Pyrrolotriazine compounds and methods of inhibiting TAM kinases” (Syros Pharmaceuticals, Inc., priority 2017, dated 2021):

Legend:
[1] = target: T1, MERTK (Homo sapiens, UniProt Q12866); assay: TR-FRET kinase activity assay, MERTK; type: biochemical; settings: for IC50: TR-FRET activity assay, ATP at Km, 60 minutes, read-out: Mer IC50
T1 sequence (Q12866 21-999): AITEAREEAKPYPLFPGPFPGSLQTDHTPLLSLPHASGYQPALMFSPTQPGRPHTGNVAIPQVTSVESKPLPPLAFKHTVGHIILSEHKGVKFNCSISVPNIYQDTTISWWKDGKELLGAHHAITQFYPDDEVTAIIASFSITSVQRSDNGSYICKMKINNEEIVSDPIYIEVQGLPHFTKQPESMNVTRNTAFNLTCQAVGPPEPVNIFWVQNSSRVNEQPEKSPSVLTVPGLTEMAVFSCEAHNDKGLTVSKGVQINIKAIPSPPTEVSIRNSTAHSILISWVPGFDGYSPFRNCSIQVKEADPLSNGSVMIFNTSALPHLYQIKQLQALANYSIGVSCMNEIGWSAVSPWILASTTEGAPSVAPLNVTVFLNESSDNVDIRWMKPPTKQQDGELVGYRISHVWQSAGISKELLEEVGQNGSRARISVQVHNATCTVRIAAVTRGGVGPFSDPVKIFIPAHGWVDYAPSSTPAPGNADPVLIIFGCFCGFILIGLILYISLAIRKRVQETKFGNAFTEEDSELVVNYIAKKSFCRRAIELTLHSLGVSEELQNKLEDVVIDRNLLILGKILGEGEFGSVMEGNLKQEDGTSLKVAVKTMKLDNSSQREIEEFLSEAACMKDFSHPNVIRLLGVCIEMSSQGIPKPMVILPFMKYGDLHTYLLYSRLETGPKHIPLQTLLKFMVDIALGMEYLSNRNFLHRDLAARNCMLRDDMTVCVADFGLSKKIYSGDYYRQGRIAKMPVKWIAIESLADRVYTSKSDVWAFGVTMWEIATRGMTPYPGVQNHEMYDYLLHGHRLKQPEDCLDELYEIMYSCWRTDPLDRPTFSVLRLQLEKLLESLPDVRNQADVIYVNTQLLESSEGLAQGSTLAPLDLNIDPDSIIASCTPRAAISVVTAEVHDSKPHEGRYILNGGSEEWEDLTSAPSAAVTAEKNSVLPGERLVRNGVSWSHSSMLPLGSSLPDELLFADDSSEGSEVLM
Summary of the method: (§1)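 Recombinant human kinases, fluorescent peptide substrate, ATP at Km; 1 h RT, pH 7.5. EDTA-quenched, Eu antibody added, TR-FRET read; IC50 determined.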

[2] = target: T2, FLT3 (Homo sapiens, UniProt P36888); assay: TR-FRET kinase activity assay, FLT3; type: biochemical; settings: ATP at Km, 60 minutes
T2 sequence (P36888 27-993): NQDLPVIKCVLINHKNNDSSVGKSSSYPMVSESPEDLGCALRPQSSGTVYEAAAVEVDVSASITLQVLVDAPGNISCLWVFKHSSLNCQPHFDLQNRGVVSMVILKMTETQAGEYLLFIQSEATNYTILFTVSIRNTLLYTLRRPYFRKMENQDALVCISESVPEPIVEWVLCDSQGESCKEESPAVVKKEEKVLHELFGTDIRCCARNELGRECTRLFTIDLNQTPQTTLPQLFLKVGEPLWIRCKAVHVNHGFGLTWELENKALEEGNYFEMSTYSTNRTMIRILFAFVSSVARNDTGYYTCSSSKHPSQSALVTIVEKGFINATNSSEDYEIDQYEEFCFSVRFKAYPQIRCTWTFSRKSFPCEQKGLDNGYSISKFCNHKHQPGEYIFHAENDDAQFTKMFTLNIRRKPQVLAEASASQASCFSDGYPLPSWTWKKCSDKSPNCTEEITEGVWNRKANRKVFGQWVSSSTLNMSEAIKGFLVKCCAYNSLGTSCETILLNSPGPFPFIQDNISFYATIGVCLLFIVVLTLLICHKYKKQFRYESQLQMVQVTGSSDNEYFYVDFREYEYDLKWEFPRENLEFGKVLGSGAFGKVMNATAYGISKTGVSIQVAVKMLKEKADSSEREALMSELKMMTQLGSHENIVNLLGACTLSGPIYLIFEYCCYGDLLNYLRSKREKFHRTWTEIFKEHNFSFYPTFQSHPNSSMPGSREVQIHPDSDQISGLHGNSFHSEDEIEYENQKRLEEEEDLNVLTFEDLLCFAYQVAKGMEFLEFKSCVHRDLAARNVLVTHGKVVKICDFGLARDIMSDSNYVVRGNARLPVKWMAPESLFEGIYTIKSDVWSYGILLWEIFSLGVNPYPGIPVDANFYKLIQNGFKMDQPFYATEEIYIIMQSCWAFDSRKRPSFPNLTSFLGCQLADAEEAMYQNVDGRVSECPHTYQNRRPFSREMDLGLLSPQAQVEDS
Summary of the method: as §1

[3] = ratio calculated as FLT3 IC50/Mer IC50
[4] = ratio of Mer to FLT3: FLT3 IC50/Mer IC50

Row | SMILES | IC50 [1] | FLT3/Mer ratio (FLT3 IC50/Mer IC50) [1, 3] | IC50 [2] | FLT3/Mer ratio (FLT3 IC50/Mer IC50) [1, 4]
1 | CC(CC1COC1)Nc1ncc2c(-c3cnn(C4COC4)c3)cc([C@H]3CC[C@H](O)CC3)n2n1 (mixture of isomers) [Compound 447] | 1000 to 10000 nM | + (“+” represents a ratio of >2.0 and <10) | 1000 to 10000 nM | 
2 | CC[C@H](C)Nc1ncc2c(-c3ccc(CN4CCN(C)CC4)cc3)cc([C@H]3CC[C@](C)(O)CC3)n2n1 (relative stereo) [Compound 132, (trans)-4-(2-((S)-sec-butylamino)-5-(4-((4-methylpiperazin-1-yl)methyl)phenyl)pyrrolo[2,1-f][1,2,4]triazin-7-yl)-1-methylcyclohexanol] | ≤ 100 nM |  | ≤ 100 nM | ++ (“++” represents a ratio of between 10 and 100)
3 | CCC1(Nc2ncc3c(-c4ccc(CN5CCN(C)CC5)cc4)cc([C@H]4CC[C@H](O)CC4)n3n2)CCC1 [Compound 126] | ≤ 100 nM |  | 1000 to 10000 nM | ++ (“++” represents a ratio of between 10 and 100)
4 | CC[C@H](C)Nc1ncc2c(C3=CCOCC3)cc([C@H]3CC[C@H](O)CC3)n2n1 [Compound 128] | ≤ 100 nM |  | ≤ 100 nM | ++ (“++” represents a ratio of between 10 and 100)
5 | CC[C@H](C)Nc1ncc2c(C3=CCNCC3)cc([C@H]3CC[C@H](O)CC3)n2n1 [Compound 130] | ≤ 100 nM |  | ≤ 100 nM | +++ (“+++” represents a ratio of >100)
6 | COC[C@H](C)Nc1ncc2c(-c3ccc(CC(=O)O)cc3)cc([C@H]3CC[C@H](O)CC3)n2n1 [Compound 133] | ≤ 100 nM |  | 100 to 1000 nM | +++ (“+++” represents a ratio of >100)
7 | COC[C@H](C)Nc1ncc2c(-c3ccc(-c4nn[nH]n4)cc3)cc([C@H]3CC[C@H](O)CC3)n2n1 [Compound 134] | ≤ 100 nM |  | 1000 to 10000 nM | +++ (“+++” represents a ratio of >100)
8 | COC[C@H](C)Nc1ncc2c(-c3ccnc(N4CCOCC4=O)c3)cc([C@H]3CC[C@H](O)CC3)n2n1 [Compound 423] | ≤ 100 nM | +++ (“+++” represents a ratio of >100) | 100 to 1000 nM | 
9 | CNS(=O)(=O)c1ccc(-c2cc([C@H]3CC[C@H](O)CC3)n3nc(N[C@@H](C)COC(F)F)ncc23)cn1 [Compound 424] | ≤ 100 nM | +++ (“+++” represents a ratio of >100) | 100 to 1000 nM | 
10 | COC[C@H](C)Nc1ncc2c(C3=CCN(C(=O)OC(C)(C)C)CC3)cc([C@H]3CC[C@H](O)CC3)n2n1 [Compound 425] | ≤ 100 nM | +++ (“+++” represents a ratio of >100) | 100 to 1000 nM | 
11 | COC[C@H](C)Nc1ncc2c(-c3ccnc(N4CC5(COC5)C4)c3)cc([C@H]3CC[C@H](O)CC3)n2n1 [Compound 426] | ≤ 100 nM | +++ (“+++” represents a ratio of >100) | 100 to 1000 nM | 
12 | COC[C@H](C)Nc1ncc2c(-c3ccnc(N4CCC5(CC4)COC5)c3)cc([C@H]3CC[C@H](O)CC3)n2n1 [Compound 427] | ≤ 100 nM | +++ (“+++” represents a ratio of >100) | 100 to 1000 nM | 
13 | COC[C@H](C)Nc1ncc2c(-c3ccnc(N4CCC5(CCO5)CC4)c3)cc([C@H]3CC[C@H](O)CC3)n2n1 [Compound 430] | ≤ 100 nM | +++ (“+++” represents a ratio of >100) | 100 to 1000 nM | 
14 | COC[C@H](C)Nc1ncc2c(-c3ccnc(NC4CCOCC4)c3)cc([C@H]3CC[C@H](O)CC3)n2n1 [Compound 431] | ≤ 100 nM | +++ (“+++” represents a ratio of >100) | 100 to 1000 nM | 
15 | CCC(=O)N1CCN(c2cc(-c3cc([C@H]4CC[C@H](O)CC4)n4nc(N[C@@H](C)COC)ncc34)ccn2)CC1 [Compound 432] | ≤ 100 nM | +++ (“+++” represents a ratio of >100) | 100 to 1000 nM | 
16 | COC[C@H](C)Nc1ncc2c(-c3ccnc(N4CCNCC4)c3)cc([C@H]3CC[C@H](O)CC3)n2n1 [Compound 434] | ≤ 100 nM | +++ (“+++” represents a ratio of >100) | 100 to 1000 nM | 
17 | C[C@@H](COC(F)F)Nc1ncc2c(-c3cnn(CCS(C)(=O)=O)c3)cc([C@H]3CC[C@H](O)CC3)n2n1 [Compound 436] | ≤ 100 nM | +++ (“+++” represents a ratio of >100) | 100 to 1000 nM | 
18 | C[C@@H](COC(F)F)Nc1ncc2c(-c3cnn(CCC#N)c3)cc([C@H]3CC[C@H](O)CC3)n2n1 [Compound 437] | ≤ 100 nM | +++ (“+++” represents a ratio of >100) | ≤ 100 nM | 
19 | COC[C@H](C)Nc1ncc2c(-c3ccnc(N4CCOC4=O)c3)cc([C@H]3CC[C@H](O)CC3)n2n1 [Compound 438] | ≤ 100 nM | +++ (“+++” represents a ratio of >100) | 1000 to 10000 nM | 
20 | COC[C@H](C)Nc1ncc2c(-c3cnn(CC4CCO4)c3)cc([C@H]3CC[C@H](O)CC3)n2n1 (stereo partly drawn) [Compound 439] | ≤ 100 nM | +++ (“+++” represents a ratio of >100) | 100 to 1000 nM | 

Further lines, results first:

Row | IC50 [1] | FLT3/Mer ratio (FLT3 IC50/Mer IC50) [1, 3] | IC50 [2] | FLT3/Mer ratio (FLT3 IC50/Mer IC50) [1, 4] | SMILES
21 | ≤ 100 nM | +++ (“+++” represents a ratio of >100) | 100 to 1000 nM |  | COC[C@H](C)Nc1ncc2c(-c3cnn(C4COC4)c3)cc([C@H]3CC[C@](C)(O)CC3)n2n1 (single isomer, unassigned) [Compound 452]
22 | ≤ 100 nM | +++ (“+++” represents a ratio of >100) | 100 to 1000 nM |  | COC[C@H](C)Nc1ncc2c(-c3cnn(C4COC4)c3)cc([C@H]3CC[C@@](C)(O)CC3)n2n1 (single isomer, unassigned) [Compound 453]
23 | ≤ 100 nM |  | ≤ 100 nM | +++ (“+++” represents a ratio of >100) | CC[C@H](C)Nc1ncc2c(-c3ccc(CN4CCN(C)CC4)cc3)cc(C3CCC(C)(O)CC3)n2n1 (stereo in doubt) [Compound 131, (cis)-4-(2-((S)-sec-butylamino)-5-(4-((4-methylpiperazin-1-yl)methyl)phenyl)pyrrolo[2,1-f][1,2,4]triazin-7-yl)-1-methylcyclohexanol]
24 | ≤ 100 nM |  | 100 to 1000 nM | +++ (“+++” represents a ratio of >100) | CCCCC[C@H](C)Nc1ncc2c([C@H]3CC[C@@H](C(=O)N4CCN(C)CC4)CC3)cc([C@H]3CC[C@H](O)CC3)n2n1 [Compound 127]
25 | ≤ 100 nM |  | 1000 to 10000 nM | +++ (“+++” represents a ratio of >100) | CC[C@H](C)Nc1ncc2c(C3CCOCC3)cc([C@H]3CC[C@H](O)CC3)n2n1 [Compound 129, (trans)-4-(2-((S)-sec-butylamino)-5-(tetrahydro-2H-pyran-4-yl)pyrrolo[2,1-f][1,2,4]triazin-7-yl)cyclohexanol]
